Test results reported in PMC9469500, “Targeting an Initiator Allergen Provides Durable and Expansive Protection against House Dust Mite Allergy” (ACS Pharmacology & Translational Science, 2022).

Legend:
Der p 1 = molecular target: T1, Der p 1 (Dermatophagoides pteronyssinus, UniProt P08176); assay type: biochemical; conditions: Figure 5A, in words
T1 construct: from tissue; host or cells: spent culture medium of Dermatophagoides pteronyssinus (native HDM extract); ammonium sulfate precipitation, size exclusion, SBTI column, Resource Q
T1 sequence (P08176 99-320): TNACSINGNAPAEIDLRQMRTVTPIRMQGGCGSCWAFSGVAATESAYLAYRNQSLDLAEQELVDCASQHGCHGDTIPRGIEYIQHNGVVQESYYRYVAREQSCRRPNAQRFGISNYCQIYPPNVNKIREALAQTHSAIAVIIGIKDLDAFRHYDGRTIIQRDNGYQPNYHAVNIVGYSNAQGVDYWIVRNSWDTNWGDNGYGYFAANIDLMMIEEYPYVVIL
Experimental: Assays were assembled in 96-well plate format using a PerkinElmer Multiprobe II Plus HTS EX robot (PerkinElmer, UK). […] Reactions were initiated by the addition of 10 μL Der p 1 dissolved in the reaction buffer at 2.5 μg/mL and followed at 30 °C by measurement of fluorescence (excitation/emission 330/420 nm) using either a Fusion Alpha-FP or Envision plate reader fitted with a temperature-controlled carrier (PerkinElmer, UK).
Inhibitor kinetics were analyzed from progress curves. For reversible inhibitors, IC50 values were calculated conventionally.

unsensitized BN rats = assay: HDM extract challenge in unsensitized (naive) BN rats, duration of protection; assay type: in vivo; conditions: for performance in vivo (maximum inhibition of the eosinophil response, Figure 5A): focused library, durability of inhibition studies
[1] = all other time points than those stated not significant, 50:1 molar equivalents
[2] = time points other than the stated exceptions, 50:1 molar equivalents i.t. aerosol
[3] = all time points, naive BN rats, HDM extract 10 µg Der p 1, single i.t. aerosol dose 50:1 molar equivalents
[4] = all time points, naive BN rats, HDM extract 10 µg Der p 1, single i.t. aerosol dose 50:1 molar equivalents to Der p 1

Compound	potency against the target molecule in vitro (Der p 1)	performance in vivo (maximum inhibition of the eosinophil response, Figure 5A) (unsensitized BN rats)	BAL neutrophil response: significance of effect (P<0.05) (unsensitized BN rats; pre-treatment at 60 min)	Reduction in BAL eosinophil response: significance of inhibition (P<0.05) (unsensitized BN rats; [2])	BAL neutrophil response: significance of effect (P<0.05) (unsensitized BN rats; [3])	Reduction in BAL eosinophil response: significance of inhibition (P<0.05) (unsensitized BN rats; [4])	also measured
3-((3S,6S,9S)-3-benzyl-9-isopropyl-6-methyl-1,4,7,10,11-pentaoxo-1-phenyl-2,5,8,12-tetraazatridecan-13-yl)benzoic acid [Compound 7]	less potent than others	effective	not significant	significant			BAL neutrophil response: significance of effect (P<0.05) (unsensitized BN rats; [1]): significant; BAL neutrophil response: significance of effect (P<0.05) (unsensitized BN rats; pre-treatment at 120 min): not significant; BAL neutrophil response: significance of effect (P<0.05) (unsensitized BN rats; pre-treatment at 360 min): not significant
CC(C)[C@H](NC(=O)[C@H](C)NC(=O)[C@H](Cc1ccccc1)NC(=O)c1ccccc1)C(=O)C(=O)NCC(=O)N1CC[N+](C)(C)CC1.O=C[O-] [Compound 4, 4-(2-{(S)-3-[(S)-2-((S)-2-benzoylamino-3-phenyl-propionylamino)-propionylamino]-4-methyl-2-oxo-pentanoylamino}-acetyl)-1,1-dimethyl-piperazin-1-ium formate]	less potent than others	effective			significant	significant	
CC(C)[C@H](NC(=O)[C@H](C)NC(=O)[C@H](Cc1ccccc1)NC(=O)c1cccc2ccccc12)C(=O)C(=O)NCC(=O)N1CCN(C)CC1 [Compound 8, N-((S)-1-(((S)-1-(((S)-4-methyl-1-((2-(4-methylpiperazin-1-yl)-2-oxoethyl)amino)-1,2-dioxopentan-3-yl)amino)-1-oxopropan-2-yl)amino)-1-oxo-3-phenylpropan-2-yl)-1-naphthamide]	less potent than others	effective	not significant			significant	BAL neutrophil response: significance of effect (P<0.05) (unsensitized BN rats; [1]): significant
CC(C)[C@H](NC(=O)[C@H](C)NC(=O)[C@@H](NC(=O)c1ccnc2ccccc12)C(C)(C)C)C(=O)C(=O)NCC(=O)N1CCN(C(C)C)CC1 [Compound 10, quinoline-4-carboxylic acid [(S)-1-((S)-1-{(S)-1-[2-(4-isopropyl-piperazin-1-yl)-2-oxo-ethylaminooxalyl]-2-methyl-propylcarbamoyl}-ethylcarbamoyl)-2,2-dimethyl-propyl]-amide]	potent	performed less satisfactorily		significant	not significant		
CC(C)[C@H](NC(=O)[C@H](C)NC(=O)[C@H](Cc1ccccc1)NC(=O)c1ccccc1)C(=O)C(=O)NCC(=O)N1CCOCC1 [Compound 13, N-((S)-1-{(S)-1-[(S)-2-methyl-1-(2-morpholin-4-yl-2-oxo-ethylaminooxalyl)-propylcarbamoyl]-ethylcarbamoyl}-2-phenyl-ethyl)-benzamide]			not significant			significant	BAL neutrophil response: significance of effect (P<0.05) (unsensitized BN rats; pre-treatment at 240 min): not significant
CC(C)[C@H](NC(=O)[C@H](C)NC(=O)[C@@H](NC(=O)c1ccnc2ccccc12)C(C)(C)C)C(=O)C(=O)NCc1ccccc1 [Compound 5, quinoline-4-carboxylic acid {(S)-1-[(S)-1-((S)-1-benzylaminooxalyl-2-methyl-propylcarbamoyl)-ethylcarbamoyl]-2,2-dimethyl-propyl}-amide]	less potent than others	effective			significant	significant	onset: temporal separation between drug dosing and HDM challenge required to achieve 50% inhibition of the eosinophil response (unsensitized BN rats; estimated, Figure 5D–F, in words): slower onset
CC(C)[C@H](NC(=O)[C@H](C)NC(=O)[C@@H](NC(=O)c1ccncc1)C(C)(C)C)C(=O)C(=O)NC1CCCCC1 [Compound 12, N-{(S)-1-[(S)-1-((S)-1-cyclohexylaminooxalyl-2-methyl-propylcarbamoyl)-ethylcarbamoyl]-2,2-dimethyl-propyl}-isonicotinamide]						significant	
CC(C)[C@H](NC(=O)[C@H](C)NC(=O)[C@@H](NC(=O)c1ccccc1)C(C)(C)C)C(=O)C(=O)NCC(=O)N1CCc2ccccc2C1 [Compound 3, N-[(S)-1-((S)-1-{(S)-1-[2-(3,4-dihydro-1H-isoquinolin-2-yl)-2-oxo-ethylaminooxalyl]-2-methyl-propylcarbamoyl}-ethylcarbamoyl)-2,2-dimethyl-propyl]-benzamide]					significant	significant	
CNC(=O)c1ccc(CNC(=O)C(=O)[C@@H](NC(=O)[C@H](C)NC(=O)[C@@H](N2Cc3ccccc3C2=O)C(C)(C)C)C(C)C)cc1 [Compound 9, 4-[((S)-3-{(S)-2-[(S)-3,3-dimethyl-2-(1-oxo-1,3-dihydro-isoindol-2-yl)-butyrylamino]-propionylamino}-4-methyl-2-oxo-pentanoylamino)-methyl]-N-methyl-benzamide]				significant	not significant		
N-((S)-1-(((S)-1-(((S)-1-(cyclohexylamino)-4-methyl-1,2-dioxopentan-3-yl)amino)-1-oxopropan-2-yl)amino)-3,3-dimethyl-1-oxobutan-2-yl)isoquinoline-4-carboxamide [Compound 6]			not significant	significant			BAL neutrophil response: significance of effect (P<0.05) (unsensitized BN rats; [1]): significant; BAL neutrophil response: significance of effect (P<0.05) (unsensitized BN rats; pre-treatment at 120 min): not significant
CC(C)[C@H](NC(=O)[C@H](C)NC(=O)[C@@H](NC(=O)c1ccccc1C(=O)O)C(C)(C)C)C(=O)C(=O)NCC(=O)N1CCN(C)CC1 [Compound 14, 2-(((S)-3,3-dimethyl-1-(((S)-1-(((S)-4-methyl-1-((2-(4-methylpiperazin-1-yl)-2-oxoethyl)amino)-1,2-dioxopentan-3-yl)amino)-1-oxopropan-2-yl)amino)-1-oxobutan-2-yl)carbamoyl)benzoic acid]					significant	significant	
CC(C)[C@H](NC(=O)[C@H](C)NC(=O)[C@H](Cc1ccccc1)NC(=O)c1ccncc1)C(=O)C(=O)NCc1ccccc1 [Compound 11, N-((S)-1-(((S)-1-(((S)-1-(benzylamino)-4-methyl-1,2-dioxopentan-3-yl)amino)-1-oxopropan-2-yl)amino)-1-oxo-3-phenylpropan-2-yl)isonicotinamide]	less potent than others	effective			not significant	significant	
CC(C)[C@H](NC(=O)[C@H](C)NC(=O)[C@@H](NC(=O)c1ccccc1)C12CC3CC(CC(C3)C1)C2)C(=O)C(=O)NCC(=O)N1CCN(C)CC1 [Compound 15, N-[(S)-adamantan-1-yl-((S)-1-{(S)-2-methyl-1-[2-(4-methyl-piperazin-1-yl)-2-oxo-ethylaminooxalyl]-propylcarbamoyl}-ethylcarbamoyl)-methyl]-benzamide]		useful in vivo activity			significant	significant	
